Data taken from patent US5798097A, “Immunogobulin conjugates” (Pharmacia & Upjohn S.p.A., priority 1987, dated 1998).

What was measured:
[1] = system: murine thymoma ITT(1) 75NS E3 (Ly-2^+); assay: 24 hour inhibition assay ([^3 H]-thymidine incorporation), E3; format: cell-based; conditions: Mus musculus
Text: (§1) The cell lines examined in this study included the (Ly-2^+) murine thymoma ITT(1) 75NS E3 variant (E3) (Smyth et al, J. Natl Cancer Inst. 1986 76 503-510), the (Ly-2^-, TFR^-) lymphoma EL4 (Horowitz et al, Science 1968 160 533-535), the (TFR^+) human cell line CEM (Foley et al Cancer 1965 18 522-529) and the (250-30.6^+) human cell line COLO 205. Cells were maintained in vitro in Dulbecco's Modified Eagle's medium (DME) or RPMI 1640 medium (Flow Laboratories, Sydney, Australia), supplemented with 10% heat inactivated newborn calf serum (Flow), 2 mM glutamine (Commonwealth Serum Laboratories, Sydney, Australia); 100 ug/ml streptomycin (Glaxo, Melbourne, Australia) and 100 I.U./ml penicillin (Commonwealth Serum Laboratories). […] Mice were subjected to a series of intraveneous (i.v.) or intratumour (i.t.) treatments and the subsequent size of tumours was measured daily with a caliper square, measuring along the perpendicular axes of the tumours. Data was recorded as mean tumour size (product of two diameters ± standard error).
(§2) (b) 30 minute inhibition assay: 200 ul of cells (2-5×10^6 /ml) were collected in sterile Eppendorf tubes, resuspended in sterile drug or conjugate and mixed for 30 min at 37° C. […] Cells were then harvested and dried, and individual samples were separated and counted on a beta scintillation counter.

[2] = system: human cell line CEM; assay: 24 hour inhibition assay ([^3 H]-thymidine incorporation), CEM; format: cell-based
Text: as §1, §2

[3] = system: COLO 205; assay: 24 hour inhibition assay ([^3 H]-thymidine incorporation), COLO 205; format: cell-based; conditions: Homo sapiens
Protocol: The cell lines examined in this study included the (Ly-2^+) murine thymoma ITT(1) 75NS E3 variant (E3) (Smyth et al, J. Natl Cancer Inst. 1986 76 503-510), the (Ly-2^-, TFR^-) lymphoma EL4 (Horowitz et al, Science 1968 160 533-535), the (TFR^+) human cell line CEM (Foley et al Cancer 1965 18 522-529) and the (250-30.6^+) human cell line COLO 205. […] Mice were subjected to a series of intraveneous (i.v.) or intratumour (i.t.) treatments and the subsequent size of tumours was measured daily with a caliper square, measuring along the perpendicular axes of the tumours. Data was recorded as mean tumour size (product of two diameters ± standard error). […]
(b) 30 minute inhibition assay: 200 ul of cells (2-5×10^6 /ml) were collected in sterile Eppendorf tubes, resuspended in sterile drug or conjugate and mixed for 30 min at 37° C. […] Cells were then harvested and dried, and individual samples were separated and counted on a beta scintillation counter. Incorporation of [^3 H]-thymidine was expressed as a percentage inhibition in incorporation of controls. […]

[4] = system: (L3T4^+) lymphoma EL4; assay: 24 hour inhibition assay ([^3 H]-thymidine incorporation), EL4; format: cell-based; conditions: Table 3; EL4, 24 hr; read-out: Mean I.D.50 values (Ida (M))
Protocol: (a) 24 hour inhibition assay: 100 ul of cells (2-5×10^6 /ml) were added to a flat-bottomed microtitre plate and incubated for 1 hour at 37° C. Free Idarubicin (Ida) (dissolved in PBS) and Ida-MoAb conjugates were filtered aseptically and dilutions were performed in sterile PBS; 50 ul of free Ida or conjugate were added to the cells using duplicate wells for each sample; control wells received 50 ul of PBS and the cells were cultured at 37° C., 7% CO2 for 24 hours.
(b) 30 minute inhibition assay: 200 ul of cells (2-5×10^6 /ml) were collected in sterile Eppendorf tubes, resuspended in sterile drug or conjugate and mixed for 30 min at 37° C. […] Cells were then harvested and dried, and individual samples were separated and counted on a beta scintillation counter. Incorporation of [^3 H]-thymidine was expressed as a percentage inhibition in incorporation of controls.
The cell lines examined in this study included the (Ly-2^+) murine thymoma ITT(1)75NS E3 variant (E3), the (L3T4^+) lymphoma EL4 (Horowitz et al, Science 1968 160 533-535), the human colon carcinoma Colo 205 (Semple et al, Cancer Res. 1978 38 1345-1355) and the (Ly-2^-, L3T4^-) human T cell leukemia CEM (Foley et al, Cancer 1965 18 522-529). […] Mice were then subjected to a series of i.v. treatments and the size of the tumours was measured daily with a caliper square, measuring along the perpendicular axes of the tumours. […]

[5] = system: E3 and CEM cell lines
Protocol: (§3) (b) 30 minute inhibition assay: 200 ul of cells (2-5×10^6 /ml) were collected in sterile Eppendorf tubes, resuspended in sterile drug or conjugate and mixed for 30 min at 37° C. Cells were then centrifuged (400 g×5 min), resuspended in growth medium and 100 ul aliquots were seeded into a microtitre plate using duplicate wells for each sample before an incubation period of 16-24 hours. After the incubation period in both these assays, 50 ul of growth medium containing 1 uCi of [^3 H]-thymidine (specific activity=5 Ci/mmol; Amersham) was added and the plates incubated for 2-4 hours. Cells were then harvested and dried, and individual samples were separated and counted on a beta scintillation counter.

[6] = system: tumour cell lines tested; assay: 24 hour assay, tumour cell lines tested (Example 2); format: cell-based
Protocol: […] Cells were then centrifuged (400 g×5 min), resuspended in growth medium and 100 ul aliquots were seeded into a microtitre plate using duplicate wells for each sample before an incubation period of 16-24 hours. After the incubation period in both these assays, 50 ul of growth medium containing 1 uCi of [^3 H]-thymidine (specific activity=5 Ci/mmol; Amersham) was added and the plates incubated for 2-4 hours. Cells were then harvested and dried, and individual samples were separated and counted on a beta scintillation counter.

[7] = system: murine thymoma ITT(1) 75NS E3 (Ly-2^+); assay: 30 minute inhibition assay ([^3 H]-thymidine incorporation), E3; format: cell-based; conditions: 0.5 h
Text: (§4) The cell lines examined in this study included the (Ly-2^+) murine thymoma ITT(1) 75NS E3 variant (E3) (Smyth et al, J. Natl Cancer Inst. 1986 76 503-510), the (Ly-2^-, TFR^-) lymphoma EL4 (Horowitz et al, Science 1968 160 533-535), the (TFR^+) human cell line CEM (Foley et al Cancer 1965 18 522-529) and the (250-30.6^+) human cell line COLO 205. Cells were maintained in vitro in Dulbecco's Modified Eagle's medium (DME) or RPMI 1640 medium (Flow Laboratories, Sydney, Australia), supplemented with 10% heat inactivated newborn calf serum (Flow), 2 mM glutamine (Commonwealth Serum Laboratories, Sydney, Australia); 100 ug/ml streptomycin (Glaxo, Melbourne, Australia) and 100 I.U./ml penicillin (Commonwealth Serum Laboratories). The E3 tumour was maintained in vivo by serial passage into (C57BL/6×BALB/c)F1 mice (CBF1 mice). Cells from the ascites fluid were washed and centrifuged (400 g×5 min) twice in phosphate buffered saline (PBS), pH7.3, resuspended in PBS and injected subcutaneously (s.c.) into the abdominal wall of mice; these developed into palpable tumours prior to treatment. Mice were subjected to a series of intraveneous (i.v.) or intratumour (i.t.) treatments and the subsequent size of tumours was measured daily with a caliper square, measuring along the perpendicular axes of the tumours. Data was recorded as mean tumour size (product of two diameters ± standard error).
as §3

[8] = system: COLO 205; assay: 30 minute inhibition assay ([^3 H]-thymidine incorporation), COLO 205; format: cell-based; conditions: Homo sapiens, 0.5 h
Protocol: (§5) The cell lines examined in this study included the (Ly-2^+) murine thymoma ITT(1) 75NS E3 variant (E3) (Smyth et al, J. Natl Cancer Inst. 1986 76 503-510), the (Ly-2^-, TFR^-) lymphoma EL4 (Horowitz et al, Science 1968 160 533-535), the (TFR^+) human cell line CEM (Foley et al Cancer 1965 18 522-529) and the (250-30.6^+) human cell line COLO 205. […] Mice were subjected to a series of intraveneous (i.v.) or intratumour (i.t.) treatments and the subsequent size of tumours was measured daily with a caliper square, measuring along the perpendicular axes of the tumours. Data was recorded as mean tumour size (product of two diameters ± standard error).
as §2
(§6) Data was recorded as mean tumour size (product of two diameters ± standard error).

[9] = system: (L3T4^+) lymphoma EL4; assay: 30 minute inhibition assay ([^3 H]-thymidine incorporation), EL4; format: cell-based; conditions: 0.5 h; Table 3; EL4, 30 min; read-out: Mean I.D.50 values (Ida (M))
Protocol: as §3, with “counter. Incorporation of [^3 H]-thymidine was expressed as a percentage inhibition in incorporation of controls.” for “counter.”
The cell lines examined in this study included the (Ly-2^+) murine thymoma ITT(1)75NS E3 variant (E3), the (L3T4^+) lymphoma EL4 (Horowitz et al, Science 1968 160 533-535), the human colon carcinoma Colo 205 (Semple et al, Cancer Res. 1978 38 1345-1355) and the (Ly-2^-, L3T4^-) human T cell leukemia CEM (Foley et al, Cancer 1965 18 522-529). Cells were maintained in vitro as described in Example 1. […] Mice were then subjected to a series of i.v. treatments and the size of the tumours was measured daily with a caliper square, measuring along the perpendicular axes of the tumours. […]

[10] = system: human cell line CEM; assay: cells; format: cell-based; conditions: 0.5 h, Table 3, 30 min, read-out: Mean I.D.50 values (Ida (M))
Protocol: as §5, §2, §6

[11] = system: E3 thymoma; assay: i.v. treatment of s.c. E3 thymoma in CBF1 mice (2.0×10^6 cells); format: in vivo; conditions: 20 ug Ida, days 4 and 5
Text: as §4, with “error). […]” for “error).”

[12] = system: solid E3 tumour; assay: Intratumour treatment of E3 tumours in CBF1 mice; format: in vivo; conditions: days 5 and 6, total Ida=30 ug
Protocol: The E3 tumour was maintained in vivo by serial passage into (C57BL/6×BALB/c)F1 mice (CBF1 mice). Cells from the ascites fluid were washed and centrifuged (400 g×5 min) twice in phosphate buffered saline (PBS), pH7.3, resuspended in PBS and injected subcutaneously (s.c.) into the abdominal wall of mice; these developed into palpable tumours prior to treatment. Mice were subjected to a series of intraveneous (i.v.) or intratumour (i.t.) treatments and the subsequent size of tumours was measured daily with a caliper square, measuring along the perpendicular axes of the tumours. Data was recorded as mean tumour size (product of two diameters ± standard error).

[13] = system: COLO 205 xenografts; assay: i.v. treatment of COLO 205 xenografts in nude mice; format: in vivo, nude (nu/nu) mice; human tumour; conditions: total 275 ug Ida
Text: Injection of 2×10^6 cells subcutaneously into the abdominal wall yielded a palpable lump within 4 days (approx. 0.1 cm^2).

[14] = Acute toxicity, single i.v. injection in CBA mice; format: in vivo; conditions: mouse, in vivo, iv; Table 2; Ida (mg/kg)
Protocol: (§7) Groups of 10-20 CBA mice were given a single i.v. injection of various doses of Ida or Ida-anti-Ly-2.1 and the survival of mice was recorded against the dose of drug delivered in mg/kg. The organs of these mice were removed and weighed prior to formalin fixation and staining by haematoxylin and eosin.
(§8) For acute toxicity experiments groups of 10 CBA (Ly2.1^+) mice were given a single injection of various doses of either Ida, Ida-anti-Ly-2.1 or Ida-anti-TFR. […] Ida-MoAb conjugates were not tested to an LD50 dose.

[15] = system: CBA mice; assay: Acute toxicity, single i.v. injection in CBA mice; format: in vivo
Protocol: as §7, §8

[16] = system: CBA mice (organs); assay: Histopathology after single i.v. dose; format: in vivo; conditions: 1.0 mg/kg i.v.
Protocol: as §7

CC(=O)[C@]1(O)Cc2c(O)c3c(c(O)c2[C@@H](O[C@H]2C[C@H](N)[C@H](O)[C@H](C)O2)C1)C(=O)c1ccccc1C3=O [Ida, 4-demethoxy-daunorubicin]
IC50 ([1]; Table 1, E3, 24 hour assay, read-out: Mean I.D.50 (50% inhibition in [^3 H]-thymidine incorporation of controls)): 1.2e-07 M | IC50 ([1]; Table 3, E3, 24 hr, read-out: Mean I.D.50 values (Ida (M))): 7.8e-08 M | IC50 ([2]; Table 1, 24 hour assay, read-out: Mean I.D.50 (50% inhibition in [^3 H]-thymidine incorporation of controls)): 2.2e-07 M | IC50 ([2]; Table 3, 24 hr, read-out: Mean I.D.50 values (Ida (M))): 9e-08 M | IC50 ([3]; Table 3, Colo 205, 24 hr, read-out: Mean I.D.50 values (Ida (M))): 8e-08 M | IC50 ([3]; target cell line COLO 205, Example 1, read-out: I.D.50 (the source's name)): 6e-08 M | IC50 [4]: 6.6e-08 M | cytotoxicity of free Ida compared with conjugates [5]: more cytotoxic to both E3 and CEM than Ida-anti-Ly-2.1 and Ida-anti-TFR respectively | activity of free Ida relative to Ida-MoAb conjugates [6]: 4-10 times | IC50 ([7]; E3, 30 min, compared with COLO 205, Example 1, read-out: dose response to free drug (I.D.50)): 9.8e-07 M | IC50 ([7]; Mus musculus, E3, incubated 30 minutes, Example 1, read-out: I.D.50 (the source's name)): 5.2e-07 M | IC50 ([7]; Mus musculus, Table 3, E3, 30 min, read-out: Mean I.D.50 values (Ida (M))): 1.8e-07 M | IC50 ([8]; COLO 205, 30 min, Example 1, read-out: dose response to free drug (I.D.50)): 9.2e-07 M | IC50 ([8]; Table 3, Colo 205, 30 min, read-out: Mean I.D.50 values (Ida (M))): 1.2e-07 M | IC50 [9]: 1.6e-07 M | IC50 [10]: 2.2e-07 M | tumour reduction [11]: up to 50% | mice died ([11]; of 10 mice): 3 | anti-tumour activity / effect on tumour growth [12]: not affecting tumour growth | mice survived [13]: 2 out of 10 | LD50 [14]: 3 mg/kg | L.D.10 ([15]; Table 2, Ida (mg/kg)): 0.75 mg/kg | LD10 ([15]; mg/kg of Ida, single i.v.): 0.75 mg/kg | initial weight loss (of original weight) ([15]; single i.v. injection, all mice): up to 25% | spleen histopathology ([16]; 15 days): atrophy of the white pulp in the spleen | cardiac histopathology ([16]; data not shown): some hypertrophy of cardiac muscle fibres
